Assay results taken from patent publication US7169955B2, “Perfluoroisopropylbenzene derivative” (Nihon Nohyaku Co., Ltd., priority 2000, dated 2007).

Experiments:
Format in all cases: in vivo
wheat [1] = assay: Phytotoxicity on upland crop plants, after-emergence test; conditions: after emergence spray, 5 kg/ha, 14 days after treatment
Text: (§1) Polyethylene-made vats having a size of 10 cm (length)×20 cm (width)×5 cm (height) were filled with soil, sown with the seeds of the upland weeds mentioned below and with seeds of soybean plant and wheat as upland crop plants, and then covered with soil. The plants were made to grow up until they reached the 1 to 2 leaved stage, after which an agent comprising a prescribed concentration of a compound obtained in Reference Example 1 as active ingredient was sprayed.
(§2) Fourteen days after the treatment, the herbicidal effect was investigated, from which weed-killing rate was calculated in the same manner as in Reference Example 2 and the results were judged. At the same time, phytotoxicity on soybean plant and wheat was investigated and judged in the same manner as in Reference Example 2.

soybean plant [2] = assay: as above; conditions: after emergence spray, 5 kg/ha, 14 days after treatment
Text: as §1, §2

paddy rice = assay: Phytotoxicity on paddy rice (paddy field pre-emergence test); conditions: 5 kg/ha, 21 days after treatment
Procedure: (§3) Soil was filled into 1/10000 are pots and brought into a state of paddy field, in which seeds of barnyard grass (Echinochloa crus-galli Beauv.) and bulrush (Scirpus juncoides Roxb.) were made to be before germination. The soil in the pots were treated with a solution containing a predetermined dosage of a chemical agent comprising a compound obtained in Reference Example 1 as the active ingredient.
(§4) Twenty one days after the treatment, the herbicidal effect was investigated, the result was compared with that in untreated plot to calculate the weedkilling rate, and the herbicidal effect was judged according to the following criterion.
At the same time, phytotoxicity on paddy rice was investigated, and judged according to the following criterion.

Arabidopsis thaliana [3] = assay: Herbicidal effect on upland weeds after emergence; conditions: after emergence (1 to 2 leaved stage) spray, 5 kg/ha, 14 days after treatment
Text: as §1, §2

[4] = system: monochoria (Monochoria veginalis); assay: Herbicidal effect on upland weeds after emergence; conditions: after emergence (1 to 2 leaved stage) spray, 5 kg/ha, 14 days after treatment
Text: as §1, §2

[5] = system: bent grass (Agrostis spp.); assay: Herbicidal effect on upland weeds after emergence; conditions: after emergence (1 to 2 leaved stage) spray, 5 kg/ha, 14 days after treatment
Text: as §1, §2

Arabidopsis thaliana [6] = assay: Herbicidal effect on upland weeds pre-emergence; conditions: upland pre-emergence spray, 5 kg/ha, 14 days after treatment
Text: (§5) Polyethylene-made vats having a size of 10 cm (length)×20 cm (width)×5 cm (height) were filled with soil, sown with seeds of Arabidopsis thialiana, bent grass (Agrostis spp.) and monochoria (Monochoria veginalis), and with seeds of wheat and soybean plant as upland crop plants, and then covered with soil. Then, a liquid preparation of an agent comprising a prescribed concentration of a compound obtained in Reference Example 1 as active ingredient was sprayed.
(§6) Fourteen days after the treatment, the herbicidal effect was investigated, from which weed-killing rate was calculated in the same manner as in Reference Example 2, and the herbicidal effect was judged.

[7] = system: monochoria (Monochoria veginalis); assay: Herbicidal effect on upland weeds pre-emergence; conditions: upland pre-emergence spray, 5 kg/ha, 14 days after treatment
Text: as §5, §6

[8] = system: bent grass (Agrostis spp.); assay: Herbicidal effect on upland weeds pre-emergence; conditions: upland pre-emergence spray, 5 kg/ha, 14 days after treatment
Text: as §5, §6

wheat [9] = assay: Phytotoxicity on upland crop plants, pre-emergence test; conditions: upland pre-emergence spray, 5 kg/ha, 14 days after treatment
Text: as §5, §6
(§7) At the same time, phytotoxicity on soybean plant and wheat was investigated and judged according to the criterion mentioned in Reference Example 1.

soybean plant [10] = assay: as above; conditions: upland pre-emergence spray, 5 kg/ha, 14 days after treatment
Text: as §5, §6, §7

[11] = system: barnyard grass (Echinochloa crus-galli Beauv.); assay: Herbicidal effect on paddy field weeds pre-emergence; conditions: paddy soil treatment pre-emergence, 5 kg/ha, 21 days after treatment
Procedure: as §3, §4

[12] = system: bulrush (Scirpus juncoides Roxb.); assay: as above; conditions: paddy soil treatment pre-emergence, 5 kg/ha, 21 days after treatment
Procedure: as §3, §4

CN(C)C(=O)Nc1ccc(C(F)(C(F)(F)F)C(F)(F)F)cc1 [Reference Example 1, 1,1-dimethyl-3-(4-heptafluoroisopropylphenyl)urea]
phytotoxicity (rating) (wheat [1]): 0 (Weedkilling rate is 0–20 (No phytotoxicity).) | phytotoxicity (rating) (soybean plant [2]): 0 (Weedkilling rate is 0–20 (No phytotoxicity).) | phytotoxicity (rating) (paddy rice): 0 (Weedkilling rate is 0–20 (No phytotoxicity).) | herbicidal effect (rating) (Arabidopsis thaliana [3]): 5 (Weedkilling rate is 100%.) | herbicidal effect (rating) [4]: 3 (Weedkilling rate is 70–89%.) | herbicidal effect (rating) [5]: 3 (Weedkilling rate is 70–89%.) | herbicidal effect (rating) (Arabidopsis thaliana [6]): 5 (Weedkilling rate is 100%.) | herbicidal effect (rating) [7]: 5 (Weedkilling rate is 100%.) | herbicidal effect (rating) [8]: 4 (Weedkilling rate is 90–99%.) | phytotoxicity (rating) (wheat [9]): 0 (Weedkilling rate is 0–20 (No phytotoxicity).) | phytotoxicity (rating) (soybean plant [10]): 0 (Weedkilling rate is 0–20 (No phytotoxicity).) | herbicidal effect (rating) [11]: 4 (Weedkilling rate is 90–99%.) | herbicidal effect (rating) [12]: 2 (Weedkilling rate is 40–69%.)
